One series concerns DSS colitis. Briefly: Mouse model of DSS colitis. Format: in vivo. The protocol:
Mouse model of DSS colitis. WT or Ella/hyal1 mice provided 3% DSS in their drinking water for 7 days and body weight measured every day. For HA digestion by PEGPH20, Mice were intravenously injected PEGPH20 (10 mg/kg) every 3 days 24 hour prior to start DSS water feeding. For Adipogenesis inhibition by PPARg inhibitor, Mice were intraperitonealy injected 120 mg/kg every single day 48 hour prior to start DSS water feeding. Mice were sacrificed after 5 and 7 days. Distal colon, mesenteric fat and blood were collected for RNA, Bacterial culture assay and toxin analysis.
(§1) Reverse transcription-quantitative PCR (RTqPCR) analyses. RTqPCR was used to determine the mRNA abundance. Total cellular RNA was extracted using the PureLink RNA Mini Kit(Life Technologies Corporation, Grand Island, N.Y.) and mRNA were purified by using Dynabeads mRNA Purification Kit(Life technologies). 100 ng of mRNA was reverse transcribed to cDNA using iScript cDNA synthesis kit (BIO-RAD LABORATORIES, INC, Hercules, Calif.). Quantitative, real-time PCR was performed on the CFX96 real time system (Biorad) using predeveloped Taqman gene expression assay (Applied Biosystems). The expression of βActin gene was used as a house keeping gene to normalize data.
(§2) Histology and immunohistochemistry (IHC). Tissue biopsies were directly embedded in OCT compound or paraffin. Paraffin embedded tissues are used for Hematoxylin/Eosin (H&E) staining, and frozen sections were fixed in 4% PFA for 20 mins or 100% Aceton prior to immunofluorescence staining. For IHC, fixed and permeabilized tissue sections were blocked with Image-iT FX reagent (invitrogen) before incubating with primary antibodies followed by appropriate 488- or 568-coupled secondary antibodies. Nuclei were counterstained with DAPI. All images were taken with an Olympus BX41 microscope (widefield) or Zeiss LSM510 confocal microscope as indicated.
Flow cytometry analyses. Colon collected from control or DSS-treated mice was cut into small pieces then digested with 2.5 mg/mL Collagenase D and 30 ng/mL DNAse1 for 2 hours at 37° C. then filtered through a 30 μm filter to generate single cell suspension for FACS analyses. Cells were then stained with zombie violet viability dye (BioLegend, 423114), blocked with anti-mouse CD16/32 (eBioscience, 14016185), followed by staining with antibody cocktails for preadipocytes or immune cells. The antibody cocktail for preadipocytes includes AF488-SMA (eBioscience, 53976082), PECy7-CD45 (BioLegend, 147704), PerCy5.5-CD31 (BioLegend, 102522), PE-Thyl (BioLegend, 105308), APC-PDGFRa (eBioscience, 17140181), BV605-SCA1 (BioLegend, 108133) and AF700-CD24 (BioLegend, 108136). The antibody cocktail for immune cells includes PECy7-CD11b (BioLegend, 101216), FITC-Ly6G (eBioscience, 11593182), PE-F4/80 (eBioscience,12480182), APC-CD11C (BioLegend, 117310), AF700-MHCII (eBioscience, 56532182) and APC-Cy7-CD3 (BioLegend, 100222). FACS analyses for surface expression of preadipocyte or immune cell markers were performed by the BD FACSCanto RUO machine and analyzed by FlowJo V10 software. Dead cells stained positive with zombie violet dye were excluded from the analyses.
Serum Endotoxin analyses. Mouse serum was separated from mouse whole blood using serum separator tubes (Becton, Dickinson and Company). Mouse serum Endotoxin levels were quantified by ToxinSensor Chromogenic LAL Endotoxin Assay Kit (GenScript).
Hyaluronan (HA) analysis. Glucosaminoglycan (GAG) including HA were extracted from 3T3L1 supernatant and Murine skin and colon. Samples were homogenized and treated overnight with protease (0.16 mg/ml; Sigma-Aldrich) to degrade protein, followed by purification by anion exchange chromatography using DEAE sephacel (Amersham Biosciences). Columns were washed with a low-salt buffer (0.15 M NaCl in 20 mM sodium acetate; pH 6.0) and eluted with 1 M NaCl. Glycans were desalted by PD10 (GE Healthcare). HA concentration were measured ELISA Duo Set (R&D Systems). […]

The conditions of series [1]: mouse, in vivo.
The test system of series [2] is S. aureus strain USA300/MRSA skin infection. Briefly: Mouse model of S. aureus skin infection. Format: in vivo. The protocol:
Mouse model of S. aureus skin infection. Staphylococcus aureus strain USA300/MRSA was used for infection. Briefly, the backs of sex-matched and age-matched adult wildtype or Ella/Hyal1 mice were shaved and hair removed by chemical depilation (Nair) then injected subcutaneously with 100 μl of a mid-logarithmic growth phase of S. aureus (2×10^6 CFU of bacteria) in PBS. Mice were sacrificed after day 3 and 8 mm skin punch biopsy comprising the center of the injection site was harvested. Infected skin surrounding the infection center (6˜8 mm) avoid of center abscess was carefully dissected out for RNA extraction or CFU determination. Skin biopsies were homogenized in 1 ml Trizol (for RNA) or PBS (for CFU counting) with 2 mm zirconia beads in a mini-bead beater 16 (Biospect, Bartlesville, Okla.). To count CFU, homogenized skin samples were serially diluted, plated onto Tryptic Soy Agar, and enumerated after 18 hours to quantify the CFU per gram of tissue. For some experiments, PEGPH20(10 mg/kg) was injected intravenously starting from 1 day prior to infection, and vehicle (10 mmol/L histidine, 130 mmol/L NaCl at pH 6.5) was used as control.
as §1, §2

For series [3], the system named is mouse preadipocytes (3T3L1). Briefly: In vitro adipocyte differentiation of 3T3L1 preadipocytes. Format: cell-based. As to the method:
Preadipocyte culture. The preadipocyte cell line 3T3-L1 was purchased from ATCC (CL-173) lot 59239597. 3T3-L1 cells were grown in preadipocyte proliferation medium stock (Cell applications, San Diego, Calif.), and P4˜P7 cells were used for in vitro differentiation. To induce differentiation, two days post-confluent 3T3-L1 cells were switched to adipocyte differentiation medium containing insulin, dexamethasone, and IBMX. (Cell applications, San Diego, Calif.), and medium was changed to fresh medium at day 2 and 4. To generate differentiated adipocytes for comparison studies between 3T3-L1 preadipocytes and adipocytes, 3T3-L1 cells were differentiated for 3 days followed by two days culture in Preadipocyte growth media. (Cell applications, San Diego, Calif.) before RNA or protein extraction.
as §1
Hyaluronan (HA) analysis. Glucosaminoglycan (GAG) including HA were extracted from 3T3L1 supernatant and Murine skin and colon. Samples were homogenized and treated overnight with protease (0.16 mg/ml; Sigma-Aldrich) to degrade protein, followed by purification by anion exchange chromatography using DEAE sephacel (Amersham Biosciences). Columns were washed with a low-salt buffer (0.15 M NaCl in 20 mM sodium acetate; pH 6.0) and eluted with 1 M NaCl. Glycans were desalted by PD10 (GE Healthcare). HA concentration were measured ELISA Duo Set (R&D Systems). The size distribution of HA was analyzed by agarose gel electrophoresis 41. The HA sample was mixed with TAE buffer containing 2 M sucrose and electrophoresed at 2 V/cm for 10 hours at room temperature. The gel was stained overnight under light-protective cover at room temperature in a solution containing 0.005% Stains-All in 50% ethanol, and destained in water. Hyalose ladders (Hyalose) were used for standards.

Setting [4] is: BADGE compared with hyaluronidase.
[5] abbreviates: 3T3L1 differentiation, 20 ug/ml PEGPH20.

As for `CC(C)(c1ccc(OCC2CO2)cc1)c1ccc(OCC2CO2)cc1` (stereo not drawn) [BADGE, Bisphenol A diglycidyl ether], in the series on DSS colitis (setting [4]), the “magnitude of inhibition of inflammation of the colon” value is reported as “less” and the “preventing DSS induced colon injury (colon length, histology, microbial translocation)” value was “lesser effect than hyaluronidase”. Moreover, the “expression of TNFα in colon” value in the series with DSS colitis (DSS colitis, BADGE 120 mg/kg intraperitoneally every day from 48 hour prior to DSS) is “inhibited expression”. For the same compound, the “Pref-1 expression in the colon” value in the series on DSS colitis (PPARg inhibitor) is given as “inhibited”.

For the compound hyaluronidase, the “effect on health or behavior of mice” value in series [1] was “No effect”. Further, in series [2] (S. aureus skin infection), the lesion size result was “decreased lesion size”. In series [2] (infected skin), the “expression of Camp” value is on record as “decreased” and the “expression of IL-6” value is given as “decreased expression”. Moreover, the “gross inflammatory response of the skin to infection” value in series [2] (mouse, in vivo) was “significant decrease”. The “lipid droplets within cells (Bodipy)” value in series [3] (3T3L1, day 2 of differentiation, 20 ug/ml PEGPH20) was “decreased lipid droplets”. Moreover, in series [3] (setting [5]), the “expression of Zfp521 mRNA” value is given as “decreased mRNA”, the “expression of adiponectin (Adipoq) mRNA” value is “decreased mRNA” and the “expression of antimicrobial peptide cathelicidin (Camp)” value is reported as “decreased”. The “expression of zfp423 mRNA” value in series [3] (adipocyte differentiation with added hyaluronidase) is reported as “decreased mRNA”. The “adipogenesis / adipocyte differentiation in vitro” value in series [3] (cultured preadipocytes) is “inhibited adipocyte differentiation”. The “decrease in body weight” value with DSS colitis (3% DSS, by day 5) is “lesser decrease in body weight”. Moreover, the “expression of tumor necrosis factor alpha (TNFα) in colon” value in the series on DSS colitis (DSS colitis, hyaluronidase delivery, vs control colitis group) is on record as “decreased expression”. Further, in the series with DSS colitis (mouse, in vivo), the “gross inflammatory response of the colon to DSS” value was “significant decrease”.

Values taken from patent US11439659B2, “Methods and compositions to prevent and treat inflammation and allergic reactions” (priority 2018, dated 2022).
